According to PubChem BioAssay AID2060484 (Molecular Pharmacology Branch, DTP, NCI, 2025):

Tested on: SUM149PT spheroids with HUVEC/MSC, viability
Experiment: Anticancer human tumor SUM149PT cell line growth inhibition [GQUAD];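 further: spheroids exposed to drugs for seven days before readout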;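 on viability, T/C: percent viability relative to DMSO vehicle control taken as 100%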
Details: for IC50: curve of first compound; for viability, T/C: stronger effect = lower value
Description: DNA G-quadruplex Stabilizer Agents in Combinations in Complex Spheroids
A high-throughput screen of multi-cell type tumor spheroids was designed to identify active combinations of DNA G-quadruplex stabilizer agents and targeted small molecules. Complex spheroids include a stromal component modeled by human endothelial cells (HUVEC) and fibroblasts modeled by human mesenchymal stem cells (MSCs). The concentration ranges selected for each drug and investigational agent were based upon clinically achievable concentrations if the clinical Cmax of the agent was known.
Compounds. The drugs and investigational agents: pidnarulex (CX-5461; NSC782164), APTO-253 (NSC789042), BRACO-19 (NSC847499), peposertib (NSC802822), ceralasertib (NSC780249), elimusertib (NSC800525), camonsertib (NSC841442), AZD-1390 (NSC803789), olaparib (NSC753686), talazoparib (NSC767125), ART-558 (NSC835418), sotorasib (NSC818433), MRTX-1133 (NSC836407), SN-38 (NSC673596), topotecan (NSC609699), etoposide (NSC141540), doxorubicin (NSC123127), gemcitabine (NSC613327), 5-fluorouracil (NSC19893), paclitaxel (NSC125973), vemurafenib (NSC761431), panobinostat (NSC761190), R-306465 (JNJ-16241199; NSC773264), adavosertib (NSC754352), TP-3654 (NSC805149), carboplatin (NSC241240), KSQ-4279 (NSC840948), and staurosporine (NSC755774) were obtained from the National Cancer Institute (NCI) Developmental Therapeutics Program Chemical Repository (34). The FDA-approved anticancer drug set is available from the NCI Developmental Therapeutics Program. […] The stock solutions were prepared in dimethyl sulfoxide (DMSO, Sigma-Aldrich, St. Louis, MO, cat. D2650) at 800-fold the tested concentration and stored at -70 degrees C prior to their use. All drugs and investigational agents were tested over a range starting from a high concentration at or near the clinical Cmax and decreasing in half-log increments. If the clinical Cmax for an agent had not been determined, the highest concentration tested was 10 microM.
2.3 Cell Culture. All cells were maintained in an incubator at 37 degrees C and 5% CO2 with 95% humidity. The PDC lines were cultured according to standard operating procedures established by the NCI PDMR. All PDCs were thawed and cultured in Matrigel-coated flasks prepared with a working solution of 1X Ham's F-12 nutrient mix, without supplementation (Invitrogen, cat. 11765054), 100 U/mL penicillin-streptomycin (Invitrogen, cat. 15140122), and 2.5% Matrigel (Corning Inc., cat. 354248) for the first three passages. The 857933-349-R-J2-PDC line was cultured in 6C/Colon 1B media, which includes advanced DMEM/F-12 (Thermo Fisher Scientific, cat. 12634028), 10 mM HEPES (Thermo Fisher Scientific, cat. 15630080), 1X GlutaMAX supplement (Thermo Fisher Scientific, cat. 35050061), 0.1 mg/mL primocin (InvivoGen, cat. ant-pm-2), 10% defined fetal bovine serum, heat inactivated (HyClone Laboratories Inc., cat. SH30070.03HI), 50% L-WRN conditioned media (ATCC, cat. CRL-3276), 1.25 mM N-Acetyl-L-cysteine (Sigma-Aldrich, cat. A9165), 10 mM nicotinamide (Sigma-Aldrich, cat. N0636), 1X B-27 supplement (Thermo Fisher Scientific, cat. 17504044), 1X N-2 supplement (Thermo Fisher Scientific, cat. 17502048), 10 microM Y-27632 dihydrochloride (Tocris Bioscience, cat. 1254), and 50 ng/mL human EGF recombinant protein (Thermo Fisher Scientific, cat. PHG0311). The 485176-168-R4-J1-PDC line was cultured in Panc media, which includes all 6C/Colon 1B media components plus 100 ng/mL human FGF-10 (Thermo Fisher Scientific, cat. 100-26), 500 nM SB-431542 (Selleckchem, cat. S1067), and gastrin (Tocris, cat. 3006).
[…]

[1] = second compound 0.0316 µM, first compound 0.0316 µM
[2] = second compound 0.0316 µM, first compound 0.316 µM
[3] = second compound 0.1 µM, first compound 0.0316 µM
[4] = second compound 0.1 µM, first compound 0.316 µM
[5] = second compound 0.316 µM, first compound 0.0316 µM
[6] = second compound 0.316 µM, first compound 0.316 µM
[7] = second compound 1 µM, first compound 0.0316 µM
[8] = second compound 1 µM, first compound 0.316 µM
[9] = second compound 3.16 µM, first compound 0.0316 µM
[10] = second compound 3.16 µM, first compound 0.316 µM
[11] = second compound 10 µM, first compound 0.0316 µM
[12] = second compound 10 µM, first compound 0.316 µM

## Cc1cccc(N(C)C(=O)C2C(O)CCN2c2nc(C)cc(C(F)(F)F)c2C#N)c1 (centres undefined) + CN(C)c1ccc(Nc2c3ccc(NC(=O)CCN4CCCC4)cc3nc3cc(NC(=O)CCN4CCCC4)ccc23)cc1
Second compound 0.0316 µM
  IC50: > 10 µM
Second compound 0.1 µM
  IC50: > 10 µM
Second compound 0.316 µM
  IC50: > 10 µM
Second compound 1 µM
  IC50: > 10 µM
Second compound 3.16 µM
  IC50: > 10 µM
Second compound 10 µM
  IC50: 4.02 µM
[1]
  viability, T/C: 97.4%
Second compound 0.0316 µM, first compound 0.1 µM
  viability, T/C: 103%
[2]
  viability, T/C: 104%
Second compound 0.0316 µM, first compound 1 µM
  viability, T/C: 103%
Second compound 0.0316 µM, first compound 3.16 µM
  viability, T/C: 107%
Second compound 0.0316 µM, first compound 10 µM
  viability, T/C: 110%
[3]
  viability, T/C: 108%
Second compound 0.1 µM, first compound 0.1 µM
  viability, T/C: 95.3%
[4]
  viability, T/C: 91.5%
Second compound 0.1 µM, first compound 1 µM
  viability, T/C: 100%
Second compound 0.1 µM, first compound 3.16 µM
  viability, T/C: 98.7%
Second compound 0.1 µM, first compound 10 µM
  viability, T/C: 103%
[5]
  viability, T/C: 92.7%
Second compound 0.316 µM, first compound 0.1 µM
  viability, T/C: 93.7%
[6]
  viability, T/C: 88.7%
Second compound 0.316 µM, first compound 1 µM
  viability, T/C: 101%
Second compound 0.316 µM, first compound 3.16 µM
  viability, T/C: 94%
Second compound 0.316 µM, first compound 10 µM
  viability, T/C: 90.6%
[7]
  viability, T/C: 85.8%
Second compound 1 µM, first compound 0.1 µM
  viability, T/C: 85.2%
[8]
  viability, T/C: 76.2%
Second compound 1 µM, first compound 1 µM
  viability, T/C: 87.9%
Second compound 1 µM, first compound 3.16 µM
  viability, T/C: 84.9%
Second compound 1 µM, first compound 10 µM
  viability, T/C: 81.5%
[9]
  viability, T/C: 99.2%
Second compound 3.16 µM, first compound 0.1 µM
  viability, T/C: 71%
[10]
  viability, T/C: 77.2%
Second compound 3.16 µM, first compound 1 µM
  viability, T/C: 77.1%
Second compound 3.16 µM, first compound 3.16 µM
  viability, T/C: 91.2%
Second compound 3.16 µM, first compound 10 µM
  viability, T/C: 68%
[11]
  viability, T/C: 82.1%
Second compound 10 µM, first compound 0.1 µM
  viability, T/C: 82.3%
[12]
  viability, T/C: 74.3%
Second compound 10 µM, first compound 1 µM
  viability, T/C: 76%
Second compound 10 µM, first compound 3.16 µM
  viability, T/C: 53%
Second compound 10 µM, first compound 10 µM
  viability, T/C: 37.9%

## Cn1ncnc1[C@H]1c2n[nH]c(=O)c3cc(F)cc(c23)N[C@@H]1c1ccc(F)cc1 + CN(C)c1ccc(Nc2c3ccc(NC(=O)CCN4CCCC4)cc3nc3cc(NC(=O)CCN4CCCC4)ccc23)cc1
Second compound 0.0316 µM
  IC50: > 0.316 µM
Second compound 0.1 µM
  IC50: > 0.316 µM
Second compound 0.316 µM
  IC50: > 0.316 µM
Second compound 1 µM
  IC50: > 0.316 µM
Second compound 3.16 µM
  IC50: > 0.316 µM
Second compound 10 µM
  IC50: > 0.316 µM
Second compound 0.0316 µM, first compound 0.000999 µM
  viability, T/C: 110%
Second compound 0.0316 µM, first compound 0.00316 µM
  viability, T/C: 91.4%
Second compound 0.0316 µM, first compound 0.00999 µM
  viability, T/C: 94.5%
[1]
  viability, T/C: 92.1%
Second compound 0.0316 µM, first compound 0.0999 µM
  viability, T/C: 91.9%
[2]
  viability, T/C: 69.4%
Second compound 0.1 µM, first compound 0.000999 µM
  viability, T/C: 95%
Second compound 0.1 µM, first compound 0.00316 µM
  viability, T/C: 99.5%
Second compound 0.1 µM, first compound 0.00999 µM
  viability, T/C: 91.5%
[3]
  viability, T/C: 89.5%
Second compound 0.1 µM, first compound 0.0999 µM
  viability, T/C: 92.4%
[4]
  viability, T/C: 66.6%
Second compound 0.316 µM, first compound 0.000999 µM
  viability, T/C: 96%
Second compound 0.316 µM, first compound 0.00316 µM
  viability, T/C: 83.4%
Second compound 0.316 µM, first compound 0.00999 µM
  viability, T/C: 98.1%
[5]
  viability, T/C: 78.2%
Second compound 0.316 µM, first compound 0.0999 µM
  viability, T/C: 81.1%
[6]
  viability, T/C: 64.9%
Second compound 1 µM, first compound 0.000999 µM
  viability, T/C: 87.6%
Second compound 1 µM, first compound 0.00316 µM
  viability, T/C: 88.1%
Second compound 1 µM, first compound 0.00999 µM
  viability, T/C: 77%
[7]
  viability, T/C: 81.5%
Second compound 1 µM, first compound 0.0999 µM
  viability, T/C: 81.2%
[8]
  viability, T/C: 56.7%
Second compound 3.16 µM, first compound 0.000999 µM
  viability, T/C: 79.3%
Second compound 3.16 µM, first compound 0.00316 µM
  viability, T/C: 89%
Second compound 3.16 µM, first compound 0.00999 µM
  viability, T/C: 80.3%
[9]
  viability, T/C: 80.8%
Second compound 3.16 µM, first compound 0.0999 µM
  viability, T/C: 73.8%
[10]
  viability, T/C: 56%
Second compound 10 µM, first compound 0.000999 µM
  viability, T/C: 88.9%
Second compound 10 µM, first compound 0.00316 µM
  viability, T/C: 79%
Second compound 10 µM, first compound 0.00999 µM
  viability, T/C: 72.2%
[11]
  viability, T/C: 83.5%
Second compound 10 µM, first compound 0.0999 µM
  viability, T/C: 74.2%
[12]
  viability, T/C: 52.3%
